pIC50: −log10 of the molar value.
Tests used:
TYK2 kinase = target: T1, TYK2 kinase (Homo sapiens, UniProt P29597); experiment: Inhibition assay of TYK2 kinase activity (ADP-Glo Kinase Assay); type: biochemical
T1 construct: purchased Life Technologies PR8440C
Protocol: Determination of inhibition of TYK2 kinase activity by the examples compounds disclosed herein
Inhibition assay of TYK2 kinase activity: the method of ADP-Glo™ Kinase Assay (Promega, V9102) was used to determine the inhibitory activity of the test compounds against TYK2 kinase.
TYK2 kinase (purchased from Life Technologies, article number: PR8440C) was diluted to the 2-fold final concentration (0.8 ng/mL) using reaction buffer (40 mM Tris-HCl, pH 7.5; 20 mM MgCl2; 0.1 mg/mL BSA; 1 mM DTT), and added to a 384-well plate at 5 μL/well. The test drugs were subjected to a 10-fold gradient dilution, from 10 μM, to obtain 6 concentrations, and added to experimental wells of the 384-well plate at 2.5 μL/well. 5 μL of water and 2.5 μL of buffer were added to negative control wells. 5 μL of TYK2 and 2.5 μL of water were added to positive control wells. After incubating for 10 minutes at room temperature, the substrate ATP and polyE4Y1 (Sigma, P0275) were added at 2.5 μL/well, mixed well, and then reacted at room temperature for 60 minutes. After the reaction was completed, the kinase activity was detected according to the instruction of the kit. First, the ADP-Glo reaction reagent was added at 10 μL/well, mixed well, and reacted at room temperature for 40 minutes. The kinase detection reagent was then added at 20 μL/well, mixed well, and then reacted at room temperature for 30 minutes. The detection was then performed and the IC50s of test drugs were calculated.

JAK1 kinase = JAK1 kinase (Homo sapiens, UniProt P23458); experiment: Inhibition assay of JAK1 kinase activity (ADP-Glo Kinase Assay); type: biochemical
Chain of JAK1 kinase (P23458 whole entry): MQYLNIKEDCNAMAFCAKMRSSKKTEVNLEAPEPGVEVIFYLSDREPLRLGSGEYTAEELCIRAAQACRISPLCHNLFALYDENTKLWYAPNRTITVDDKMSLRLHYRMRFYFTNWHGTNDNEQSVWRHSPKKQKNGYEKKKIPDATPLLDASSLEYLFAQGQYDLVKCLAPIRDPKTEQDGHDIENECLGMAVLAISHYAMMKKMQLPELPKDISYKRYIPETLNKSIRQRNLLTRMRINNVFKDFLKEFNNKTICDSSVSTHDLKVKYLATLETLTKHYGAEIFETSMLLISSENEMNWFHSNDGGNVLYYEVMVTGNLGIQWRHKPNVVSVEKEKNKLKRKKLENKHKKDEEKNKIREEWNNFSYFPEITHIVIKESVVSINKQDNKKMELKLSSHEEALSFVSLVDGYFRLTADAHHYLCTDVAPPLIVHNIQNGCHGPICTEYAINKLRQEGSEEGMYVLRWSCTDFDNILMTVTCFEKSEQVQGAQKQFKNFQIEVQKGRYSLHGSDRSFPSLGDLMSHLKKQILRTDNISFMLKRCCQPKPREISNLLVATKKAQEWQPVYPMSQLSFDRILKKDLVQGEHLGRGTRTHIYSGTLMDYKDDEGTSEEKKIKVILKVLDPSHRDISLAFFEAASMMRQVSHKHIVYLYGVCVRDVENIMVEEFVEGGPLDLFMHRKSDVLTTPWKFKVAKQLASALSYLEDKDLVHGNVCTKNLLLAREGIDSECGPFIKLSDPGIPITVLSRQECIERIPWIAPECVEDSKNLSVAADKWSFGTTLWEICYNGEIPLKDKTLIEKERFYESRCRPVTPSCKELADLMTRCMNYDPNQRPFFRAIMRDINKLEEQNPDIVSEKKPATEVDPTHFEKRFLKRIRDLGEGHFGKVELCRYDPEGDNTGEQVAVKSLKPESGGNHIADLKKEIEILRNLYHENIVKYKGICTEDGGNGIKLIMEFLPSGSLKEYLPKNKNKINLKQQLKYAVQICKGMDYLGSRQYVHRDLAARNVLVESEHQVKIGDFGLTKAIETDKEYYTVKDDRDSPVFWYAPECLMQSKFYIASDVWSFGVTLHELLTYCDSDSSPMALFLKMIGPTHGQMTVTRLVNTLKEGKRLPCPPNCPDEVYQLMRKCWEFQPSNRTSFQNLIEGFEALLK
Excerpt: Inhibition assay of JAK1 kinase activity: the method in ADP-Glo™ Kinase Assay (Promega, V9102) was used to determine the inhibitory activity of the test compounds against JAK1 kinase.

T1 sequence (P29597 whole entry): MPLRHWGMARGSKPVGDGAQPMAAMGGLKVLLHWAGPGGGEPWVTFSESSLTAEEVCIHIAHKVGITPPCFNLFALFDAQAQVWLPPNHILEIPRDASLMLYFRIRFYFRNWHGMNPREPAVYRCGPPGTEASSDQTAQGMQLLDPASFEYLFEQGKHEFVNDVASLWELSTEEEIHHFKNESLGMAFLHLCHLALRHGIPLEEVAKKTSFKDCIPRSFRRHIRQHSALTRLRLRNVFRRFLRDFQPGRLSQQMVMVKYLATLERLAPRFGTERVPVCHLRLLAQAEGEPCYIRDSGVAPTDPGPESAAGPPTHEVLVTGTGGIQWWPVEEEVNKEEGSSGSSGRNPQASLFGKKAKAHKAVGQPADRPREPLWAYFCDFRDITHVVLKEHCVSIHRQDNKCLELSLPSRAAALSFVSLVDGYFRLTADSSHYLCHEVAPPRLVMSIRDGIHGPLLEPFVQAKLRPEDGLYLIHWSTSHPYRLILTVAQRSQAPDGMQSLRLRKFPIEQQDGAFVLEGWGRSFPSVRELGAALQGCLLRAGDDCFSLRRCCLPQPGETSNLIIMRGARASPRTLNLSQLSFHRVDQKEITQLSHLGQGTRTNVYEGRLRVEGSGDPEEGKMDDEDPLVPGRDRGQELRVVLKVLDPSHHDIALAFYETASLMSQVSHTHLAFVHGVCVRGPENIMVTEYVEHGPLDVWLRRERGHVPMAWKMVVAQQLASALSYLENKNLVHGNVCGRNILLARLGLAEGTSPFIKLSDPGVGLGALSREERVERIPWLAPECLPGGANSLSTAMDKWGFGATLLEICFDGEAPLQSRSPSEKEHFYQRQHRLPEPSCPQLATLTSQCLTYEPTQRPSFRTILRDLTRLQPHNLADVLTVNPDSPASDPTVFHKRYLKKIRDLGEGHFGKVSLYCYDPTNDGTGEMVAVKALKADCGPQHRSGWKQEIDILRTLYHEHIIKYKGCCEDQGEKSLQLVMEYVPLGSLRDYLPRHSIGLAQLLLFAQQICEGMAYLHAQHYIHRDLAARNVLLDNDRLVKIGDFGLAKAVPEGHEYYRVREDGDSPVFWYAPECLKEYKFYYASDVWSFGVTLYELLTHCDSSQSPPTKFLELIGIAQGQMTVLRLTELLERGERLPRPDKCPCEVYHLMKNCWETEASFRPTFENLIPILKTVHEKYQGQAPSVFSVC

SMILES | pIC50 (TYK2 kinase) | pIC50 (JAK1 kinase)
NC(=O)c1cnc(Nc2ccc3c(c2)NCC(O)CO3)nc1NC1CCCC1 (stereo not drawn) [Example 3, 4-(cyclopentylamino)-2-((3-hydroxy-2,3,4,5-tetrahydro-benzo[b][1,4]oxazepin-7-yl)amino)pyrimidin-5-carboxamide] | > 8.00 | > 8.00
NC(=O)c1cnc(Nc2ccc3c(c2)NCC(O)CO3)nc1NC1CCCCC1 (stereo not drawn) [Example 4, 4-(cyclohexylamino)-2-((3-hydroxy-2,3,4,5-tetrahydro-benzo[b][1,4]oxazepin-7-yl)amino)pyrimidin-5-carboxamide] | > 8.00 | 7.00 to 8.00
NC(=O)c1cnc(Nc2ccc3c(c2)NCC(O)CO3)nc1NC12CC3CC(CC(C3)C1)C2 (stereo not drawn) [Example 5, 4-((adamantanyl-1-yl)amino)-2-((3-hydroxy-2,3,4,5-tetrahydro-benzo[b][1,4]oxazepin-7-yl)amino)pyrimidin-5-carboxamide] | 7.00 to 8.00 | 7.00 to 8.00
NC(=O)c1cnc(Nc2ccc3c(c2)NCC(O)CO3)nc1NC1CCOCC1 (stereo not drawn) [Example 6, 4-((tetrahydropyran-4-yl)amino)-2-((3-hydroxy-2,3,4,5-tetrahydro-benzo[b][1,4]oxazepin-7-yl)amino)pyrimidin-5-carboxamide] | > 8.00 | 7.00 to 8.00
N#CCNc1nc(Nc2ccc3c(c2)NCC(O)CO3)ncc1C(N)=O (stereo not drawn) [Example 8, 4-(cyanomethylamino)-2-((3-hydroxy-2,3,4,5-tetrahydro-benzo[b][1,4]oxazepin-7-yl)amino)pyrimidin-5-carboxamide] | > 8.00 | 7.00 to 8.00
NC(=O)c1cnc(Nc2ccc3c(c2)NCC(O)CO3)nc1NCc1ccc(F)cc1 (stereo not drawn) [Example 10, 4-((4-fluorobenzyl)amino)-2-((3-hydroxy-2,3,4,5-tetrahydro-benzo[b][1,4]oxazepin-7-yl)amino)pyrimidin-5-carboxamide] | 7.00 to 8.00 | –
COc1ccc(CNc2nc(Nc3ccc4c(c3)NCC(O)CO4)ncc2C(N)=O)cc1 (stereo not drawn) [Example 11, 4-((4-methoxybenzyl)amino)-2-((3-hydroxy-2,3,4,5-tetrahydro-benzo[b][1,4]oxazepin-7-yl)amino)pyrimidin-5-carboxamide] | 7.00 to 8.00 | –
CC(Nc1nc(Nc2ccc3c(c2)NCC(O)CO3)ncc1C(N)=O)c1ccccc1 (stereo not drawn) [Example 12, 4-((1-phenylethyl)amino)-2-((3-hydroxy-2,3,4,5-tetrahydro-benzo[b][1,4]oxazepin-7-yl)amino)pyrimidin-5-carboxamide] | 7.00 to 8.00 | –
NC(=O)c1cnc(Nc2ccc3c(c2)NCC(O)CO3)nc1NCc1ccccn1 (stereo not drawn) [Example 13, 4-((pyridin-2-ylmethyl)amino)-2-((3-hydroxy-2,3,4,5-tetrahydro-benzo[b][1,4]oxazepin-7-yl)amino)pyrimidin-5-carboxamide] | > 8.00 | –
NC(=O)c1cnc(Nc2ccc3c(c2)NCC(O)CO3)nc1NCc1cccnc1 (stereo not drawn) [Example 14, 4-((pyridin-3-ylmethyl)amino)-2-((3-hydroxy-2,3,4,5-tetrahydro-benzo[b][1,4]oxazepin-7-yl)amino)pyrimidin-5-carboxamide] | > 8.00 | 7.00 to 8.00
NC(=O)c1cnc(Nc2ccc3c(c2)NCC(O)CO3)nc1NCc1ccncc1 (stereo not drawn) [Example 15, 4-((pyridin-4-ylmethyl)amino)-2-((3-hydroxy-2,3,4,5-tetrahydro-benzo[b][1,4]oxazepin-7-yl)amino)pyrimidin-5-carboxamide] | 7.00 to 8.00 | –
NC(=O)c1cnc(Nc2ccc3c(c2)NCC(O)CO3)nc1Nc1ccccc1 (stereo not drawn) [Example 16, 4-(phenylamino)-2-((3-hydroxy-2,3,4,5-tetrahydro-benzo[b][1,4]oxazepin-7-yl)amino)pyrimidin-5-carboxamide] | 7.00 to 8.00 | –
Cc1cccc(Nc2nc(Nc3ccc4c(c3)NCC(O)CO4)ncc2C(N)=O)c1 (stereo not drawn) [Example 17, 4-((3-methylphenyl)amino)-2-((3-hydroxy-2,3,4,5-tetrahydro-benzo[b][1,4]oxazepin-7-yl)amino)pyrimidin-5-carboxamide] | > 8.00 | 7.00 to 8.00
NC(=O)c1cnc(Nc2ccc3c(c2)NCC(O)CO3)nc1Nc1cccc(F)c1 (stereo not drawn) [Example 18, 4-((3-fluorophenyl)amino)-2-((3-hydroxy-2,3,4,5-tetrahydro-benzo[b][1,4]oxazepin-7-yl)amino)pyrimidin-5-carboxamide] | 7.00 to 8.00 | –
Cc1ccc(Nc2nc(Nc3ccc4c(c3)NCC(O)CO4)ncc2C(N)=O)nc1 (stereo not drawn) [Example 19, 4-((5-methylpyridin-2-yl)amino)-2-((3-hydroxy-2,3,4,5-tetrahydro-benzo[b][1,4]oxazepin-7-yl)amino)pyrimidin-5-carboxamide] | 7.00 to 8.00 | –
Cn1ccc2c(Nc3nc(Nc4ccc5c(c4)NCC(O)CO5)ncc3C(N)=O)cccc21 (stereo not drawn) [Example 20, 4-((1-methyl-1H-indol-4-yl)amino)-2-((3-hydroxy-2,3,4,5-tetrahydro-benzo[b][1,4]oxazepin-7-yl)amino)pyrimidin-5-carboxamide] | > 8.00 | 7.00 to 8.00
NC(=O)c1cnc(Nc2ccc3c(c2)NCC(O)CO3)nc1Nc1cccc2sccc12 (stereo not drawn) [Example 21, 4-(benzo[b]thiophen-4-ylamino)-2-((3-hydroxy-2,3,4,5-tetrahydro-benzo[b][1,4]oxazepin-7-yl)amino)pyrimidin-5-carboxamide] | > 8.00 | –
NC(=O)c1cnc(Nc2ccc3c(c2)NCC(O)CO3)nc1NC1CCCc2ccccc21 (stereo not drawn) [Example 22, 4-((1,2,3,4-tetrahydronaphthalen-1-yl)amino)-2-((3-hydroxy-2,3,4,5-tetrahydro-benzo[b][1,4]oxazepin-7-yl)amino)pyrimidin-5-carboxamide] | 7.00 to 8.00 | –
CC(O)CNc1nc(Nc2ccc3c(c2)NCC(O)CO3)ncc1C(N)=O (stereo not drawn) [Example 23, 4-((2-hydroxypropyl)amino)-2-((3-hydroxy-2,3,4,5-tetrahydro-benzo[b][1,4]oxazepin-7-yl)amino)pyrimidin-5-carboxamide] | > 8.00 | –
CC(C)(CO)Nc1nc(Nc2ccc3c(c2)NC[C@H](O)CO3)ncc1C(N)=O [Example 28, 4-((1-hydroxy-2-methylpropan-2-yl)amino)-2-(((S)-2,3,4,5-tetrahydro-3-hydroxybenzo[b][1,4]oxazepin-7-yl)amino)pyrimidin-5-carboxamide] | > 8.00 | –
NC(=O)c1cnc(Nc2ccc3c(c2)NC[C@H](O)CO3)nc1Nc1cccc2[nH]ccc12 [Example 29, 4-((1H-indol-4-yl)amino)-2-(((S)-2,3,4,5-tetrahydro-3-hydroxybenzo[b][1,4]oxazepin-7-yl)amino)pyrimidin-5-carboxamide] | > 8.00 | > 8.00
CC(C)Nc1nc(Nc2ccc3c(c2)NC[C@H](O)CO3)ncc1C(N)=O [Example 30, 4-(isopropylamino)-2-(((S)-2,3,4,5-tetrahydro-3-hydroxybenzo[b][1,4]oxazepin-7-yl)amino)pyrimidin-5-carboxamide] | > 8.00 | 7.00 to 8.00
CC(Nc1nc(Nc2ccc3c(c2)NC[C@H](O)CO3)ncc1C(N)=O)C(F)(F)F (stereo partly drawn) [Example 32, 4-(1,1,1-trifluoropropan-2-ylamino)-2-(((S)-2,3,4,5-tetrahydro-3-hydroxybenzo[b][1,4]oxazepin-7-yl)amino)pyrimidin-5-carboxamide] | 7.00 to 8.00 | 7.00 to 8.00
NC(=O)c1cnc(Nc2ccc3c(c2)NC[C@H](O)CO3)nc1NC1CCCCC1 [Example 33, 4-(cyclohexylamino)-2-(((S)-2,3,4,5-tetrahydro-3-hydroxybenzo[b][1,4]oxazepin-7-yl)amino)pyrimidin-5-carboxamide] | > 8.00 | 7.00 to 8.00
NC(=O)c1cnc(Nc2ccc3c(c2)NC[C@H](O)CO3)nc1Nc1cccc(-c2nc[nH]n2)c1 [Example 35] | > 8.00 | 7.00 to 8.00
CCS(=O)(=O)NCCNc1nc(Nc2ccc3c(c2)NC[C@H](O)CO3)ncc1C(N)=O [Example 71, 4-((2-(ethylsulfonamido)ethyl)amino)-2-(((S)-2,3,4,5-tetrahydro-3-hydroxybenzo[b][1,4]oxazepin-7-yl)amino)pyrimidin-5-carboxamide] | > 8.00 | –
CCO[C@@H]1CNc2cc(Nc3ncc(C(N)=O)c(NC4CC4)n3)ccc2OC1 [Example 83, 4-(cyclopropylamino)-2-(((R)-2,3,4,5-tetrahydro-3-ethoxybenzo[b][1,4]oxazepin-7-yl)amino)pyrimidin-5-carboxamide] | > 8.00 | –
CCCCO[C@@H]1CNc2cc(Nc3ncc(C(N)=O)c(NC4CC4)n3)ccc2OC1 [Example 85, 4-(cyclopropylamino)-2-(((R)-2,3,4,5-tetrahydro-3-butoxybenzo[b][1,4]oxazepin-7-yl)amino)pyrimidin-5-carboxamide] | > 8.00 | –
CCCCCO[C@H]1CNc2cc(Nc3ncc(C(N)=O)c(NC4CC4)n3)ccc2OC1 [Example 88, 4-(cyclopropylamino)-2-(((S)-2,3,4,5-tetrahydro-3-pentoxybenzo[b][1,4]oxazepin-7-yl)amino)pyrimidin-5-carboxamide] | 7.00 to 8.00 | –
